How the values were obtained:
[1] = tested on: HCV replicon RNA (GenBank Accession No. AJ242654); experiment: HCV Replicon Assay (replicon RNA reduction and/or Fluc reporter signal); type: cell-based, Hepatitis C virus; conditions: Hepatitis C virus, 72 h, replicon-containing cells cultured with test compound for up to 3 days
Procedure, shortened: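 IC50 values mostly reflect the drop in replicon RNA, though Fluc reporter signal may also be used. Compound incubated with cells carrying the bicistronic replicon for as long as 3 days; interferon served as positive control.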

Row | Compound | IC50 [1] [nM] | melting point [°C]
1 | CSc1cnc2c(c1)c(C#N)c(-c1ccc(S(=O)(=O)NC3(C(F)(F)F)CC3)cc1)n2C1CCC1 [Cpd 364, 4-[3-cyano-1-cyclobutyl-5-(methylsulfanyl)-1H-pyrrolo[2,3-b]pyridin-2-yl]-N-[1-(trifluoromethyl)cyclopropyl]benzenesulfonamide] | < 500 | 197 to 199
2 | COc1cnc2c(c1)c(C#N)c(-c1ccc(S(=O)(=O)N[C@@H](C)C(F)(F)F)cn1)n2-c1cnccn1 [Cpd 365, 6-[3-cyano-5-methoxy-1-(pyrazin-2-yl)-1H-pyrrolo[2,3-b]pyridin-2-yl]-N-[(2S)-1,1,1-trifluoropropan-2-yl]pyridine-3-sulfonamide] | < 500 | 220 to 225
3 | Cc1cnc2c(c1)c(C#N)c(-c1ccc(S(=O)(=O)N[C@@H](C)C(F)(F)F)cn1)n2-c1ccncc1 [Cpd 368, 6-[3-cyano-5-methyl-1-(pyridin-4-yl)-1H-pyrrolo[2,3-b]pyridin-2-yl]-N-[(2S)-1,1,1-trifluoropropan-2-yl]pyridine-3-sulfonamide] | < 500 | 243 to 245
4 | CC(C)(C)NS(=O)(=O)c1ccc(-c2c(C#N)c3cc(Cl)cnc3n2C2CCC2)cc1 [Cpd 371, N-tert-butyl-4-(5-chloro-3-cyano-1-cyclobutyl-1H-pyrrolo[2,3-b]pyridin-2-yl)benzenesulfonamide] | < 500 | 244 to 246
5 | NC(=O)c1c(-c2ccc(S(=O)(=O)NC3(C(F)(F)F)CC3)cc2)n(C2CCC2)c2ncc(C3CC3)cc12 [Cpd 373, 1-cyclobutyl-5-cyclopropyl-2-(4-{[1-(trifluoromethyl)cyclopropyl]sulfamoyl}phenyl)-1H-pyrrolo[2,3-b]pyridine-3-carboxamide] | < 500 | 224 to 229
6 | CC(C)(C)NS(=O)(=O)c1ccc(-c2c(C(N)=O)c3cc(C4CC4)cnc3n2C2CCC2)nc1 [Cpd 376, 2-[5-(tert-butylsulfamoyl)pyridin-2-yl]-1-cyclobutyl-5-cyclopropyl-1H-pyrrolo[2,3-b]pyridine-3-carboxamide] | < 500 | 245 to 252
7 | CCc1cnc2c(c1)c(C(N)=O)c(-c1ccc(S(=O)(=O)N[C@@H](C)C(F)(F)F)cn1)n2C1CCC1 [Cpd 377, 1-cyclobutyl-5-ethyl-2-(5-{[(2S)-1,1,1-trifluoropropan-2-yl]sulfamoyl}pyridin-2-yl)-1H-pyrrolo[2,3-b]pyridine-3-carboxamide] | < 500 | 236 to 240
8 | CCc1cnc2c(c1)c(C(N)=O)c(-c1ccc(S(=O)(=O)NC(C)(C)C(F)(F)F)cc1)n2C1CCC1 [Cpd 378, 1-cyclobutyl-5-ethyl-2-{4-[(1,1,1-trifluoro-2-methylpropan-2-yl)sulfamoyl]phenyl}-1H-pyrrolo[2,3-b]pyridine-3-carboxamide] | < 500 | 185 to 193
9 | CCc1cnc2c(c1)c(C(N)=O)c(-c1ccc(S(=O)(=O)NC3(C(F)(F)F)CC3)cc1)n2C1CCC1 [Cpd 379, 1-cyclobutyl-5-ethyl-2-(4-{[1-(trifluoromethyl)cyclopropyl]sulfamoyl}phenyl)-1H-pyrrolo[2,3-b]pyridine-3-carboxamide] | < 500 | 173 to 179
10 | Cc1cnc2c(c1)c(C#N)c(-c1ccc(S(=O)(=O)N[C@@H](C)C(F)(F)F)cn1)n2-c1cccnn1 [Cpd 383, 6-[3-cyano-5-methyl-1-(pyridazin-3-yl)-1H-pyrrolo[2,3-b]pyridin-2-yl]-N-[(2S)-1,1,1-trifluoropropan-2-yl]pyridine-3-sulfonamide] | < 500 | 150 to 153
11 | Cc1cnc2c(c1)c(C#N)c(-c1ccc(S(=O)(=O)N[C@@H](C)C(F)(F)F)cn1)n2-c1cncnc1 [Cpd 384, 6-[3-cyano-5-methyl-1-(pyrimidin-5-yl)-1H-pyrrolo[2,3-b]pyridin-2-yl]-N-[(2S)-1,1,1-trifluoropropan-2-yl]pyridine-3-sulfonamide] | < 500 | 231 to 233
12 | CC(C)(C)S(=O)(=O)Nc1ccc(-c2c(C#N)c3cc(Cl)cnc3n2C2CCC2)cc1 [Cpd 385, N-[4-(5-chloro-3-cyano-1-cyclobutyl-1H-pyrrolo[2,3-b]pyridin-2-yl)phenyl]-2-methylpropane-2-sulfonamide] | < 500 | 240 to 241
13 | CSc1cnc2c(c1)c(C(N)=O)c(-c1ccc(NS(=O)(=O)C(C)(C)C)cc1)n2C1CCC1 [Cpd 387, 2-{4-[(tert-butylsulfonyl)amino]phenyl}-1-cyclobutyl-5-(methylsulfanyl)-1H-pyrrolo[2,3-b]pyridine-3-carboxamide] | < 500 | 240 to 241
14 | CC(C)(NS(=O)(=O)c1ccc(-c2c(C(N)=O)c3cccnc3n2C2CCC2)cc1)C(F)(F)F [Cpd 388, 1-cyclobutyl-2-{4-[(1,1,1-trifluoro-2-methylpropan-2-yl)sulfamoyl]phenyl}-1H-pyrrolo[2,3-b]pyridine-3-carboxamide] | 500 to 2000 | 240 to 242
15 | CSc1cnc2c(c1)c(C(N)=O)c(-c1ccc(S(=O)(=O)NC(C)(C)C(F)(F)F)cc1)n2C1CCC1 [Cpd 391, 1-cyclobutyl-5-(methylsulfanyl)-2-{4-[(1,1,1-trifluoro-2-methylpropan-2-yl)sulfamoyl]phenyl}-1H-pyrrolo[2,3-b]pyridine-3-carboxamide] | < 500 | 204 to 205
16 | CSc1cnc2c(c1)c(C(N)=O)c(-c1ccc(S(=O)(=O)NC(C)(C)C)cc1)n2C1CCC1 [Cpd 392, 2-[4-(tert-butylsulfamoyl)phenyl]-1-cyclobutyl-5-(methylsulfanyl)-1H-pyrrolo[2,3-b]pyridine-3-carboxamide] | < 500 | 224 to 226
17 | CC(C)(C)NS(=O)(=O)c1ccc(-c2c(C(N)=O)c3cc(Cl)cnc3n2C2CCC2)cc1 [Cpd 393, 2-[4-(tert-butylsulfamoyl)phenyl]-5-chloro-1-cyclobutyl-1H-pyrrolo[2,3-b]pyridine-3-carboxamide] | < 500 | 269 to 270
18 | CC(C)(NS(=O)(=O)c1ccc(-c2c(C#N)c3cc(C(F)(F)F)cnc3n2C2CCC2)nc1)C(F)(F)F [Cpd 395, 6-[3-cyano-1-cyclobutyl-5-(trifluoromethyl)-1H-pyrrolo[2,3-b]pyridin-2-yl]-N-(1,1,1-trifluoro-2-methylpropan-2-yl)pyridine-3-sulfonamide] | < 500 | 174 to 176
19 | N#Cc1c(-c2ccc(S(=O)(=O)NC3(C(F)(F)F)CC3)cn2)n(C2CCC2)c2ncc(C(F)(F)F)cc12 [Cpd 396, 6-[3-cyano-1-cyclobutyl-5-(trifluoromethyl)-1H-pyrrolo[2,3-b]pyridin-2-yl]-N-[1-(trifluoromethyl)cyclopropyl]pyridine-3-sulfonamide] | < 500 | 156 to 158
20 | CC1(NS(=O)(=O)c2ccc(-c3c(C#N)c4cc(C(F)(F)F)cnc4n3C3CCC3)nc2)CC1 [Cpd 398, 6-[3-cyano-1-cyclobutyl-5-(trifluoromethyl)-1H-pyrrolo[2,3-b]pyridin-2-yl]-N-(1-methylcyclopropyl)pyridine-3-sulfonamide] | < 500 | 172 to 175
21 | CC(C)(NS(=O)(=O)c1ccc(-c2c(C(N)=O)c3cc(C(F)(F)F)cnc3n2C2CCC2)nc1)C(F)(F)F [Cpd 399, 1-cyclobutyl-5-(trifluoromethyl)-2-{5-[(1,1,1-trifluoro-2-methylpropan-2-yl)sulfamoyl]pyridin-2-yl}-1H-pyrrolo[2,3-b]pyridine-3-carboxamide] | < 500 | 217 to 219
22 | NC(=O)c1c(-c2ccc(S(=O)(=O)NC3(C(F)(F)F)CC3)cn2)n(C2CCC2)c2ncc(C(F)(F)F)cc12 [Cpd 400, 1-cyclobutyl-5-(trifluoromethyl)-2-(5-{[1-(trifluoromethyl)cyclopropyl]sulfamoyl}pyridin-2-yl)-1H-pyrrolo[2,3-b]pyridine-3-carboxamide] | < 500 | 230 to 235
23 | CC(C)(NS(=O)(=O)c1ccc(-c2c(C(N)=O)c3cc(C(F)(F)F)cnc3n2C2CCC2)cc1)C(F)(F)F [Cpd 401, 1-cyclobutyl-5-(trifluoromethyl)-2-{4-[(1,1,1-trifluoro-2-methylpropan-2-yl)sulfamoyl]phenyl}-1H-pyrrolo[2,3-b]pyridine-3-carboxamide] | < 500 | 239 to 241
24 | NC(=O)c1c(-c2ccc(S(=O)(=O)NC3(C(F)(F)F)CC3)cc2)n(C2CCC2)c2ncc(C(F)(F)F)cc12 [Cpd 402, 1-cyclobutyl-5-(trifluoromethyl)-2-(4-{[1-(trifluoromethyl)cyclopropyl]sulfamoyl}phenyl)-1H-pyrrolo[2,3-b]pyridine-3-carboxamide] | < 500 | 261 to 263
25 | CC(C)(C)NS(=O)(=O)c1ccc(-c2c(C(N)=O)c3cc(C(F)(F)F)cnc3n2C2CCC2)cc1 [Cpd 403, 2-[4-(tert-butylsulfamoyl)phenyl]-1-cyclobutyl-5-(trifluoromethyl)-1H-pyrrolo[2,3-b]pyridine-3-carboxamide] | < 500 | 255 to 257
26 | CC(C)(C)S(=O)(=O)Nc1ccc(-c2c(C(N)=O)c3cc(C(F)(F)F)cnc3n2C2CCC2)cc1 [Cpd 404, 2-{4-[(tert-butylsulfonyl)amino]phenyl}-1-cyclobutyl-5-(trifluoromethyl)-1H-pyrrolo[2,3-b]pyridine-3-carboxamide] | < 500 | 257 to 259
27 | Cc1nc2c(cc1C(F)(F)F)c(C#N)c(-c1ccc(S(=O)(=O)N[C@@H](C)C(F)(F)F)cn1)n2C1CCC1 [Cpd 405, 6-[3-cyano-1-cyclobutyl-6-methyl-5-(trifluoromethyl)-1H-pyrrolo[2,3-b]pyridin-2-yl]-N-[(2S)-1,1,1-trifluoropropan-2-yl]pyridine-3-sulfonamide] | < 500 | 201 to 203

Reference: US9593108B2, “Compounds and methods for antiviral treatment” (PTC Therapeutics, Inc., priority 2009, dated 2017)
